Where a SMILES comes first, the peptide text is derived from it. [ ]: non-standard residue; d: D form.

Assay [1] deals with human vascular endothelial cells and fibroblast cells. Put plainly: Lumen formation test, areas of formed lumina (Angiogenesis Kit KZ-1000). Conditions: 0.5, 2.5 and 10 μg/mL, Day 11 of culture. Format: cell-based. On the procedure: Then, in order to examine the angiogenesis activity of these, lumen formation by the polypeptides was evaluated using an angiogenesis kit available from KURABO […] LTD. (Product No.: KZ-1000). Vascular endothelial growth factor (VEGF) as a positive control, and polypeptide-free, unstimulated group as a negative control, were used.
Using a special medium for angiogenesis which was attached to the kit, each polypeptide was prepared such that the concentration thereof was respectively 0.5, 2.5 and 10 μg/mL. To a 24-well plate in which cells were plated (the cells were those obtained by co-culturing human vascular endothelial cells and fibroblast cells at an optimum concentration) which was attached to the kit, the special medium for angiogenesis containing each polypeptide was added, and the cells were cultured at 37° C. under 5% CO2. The medium was replaced with a medium containing the same additive on Day 4, Day 7 and Day 9 of culture. […]
Each of the obtained images was quantified using an angiogenesis quantification software. The areas of formed lumina observed in each visual field were measured on the basis of the scale of an angiogenesis quantification software available from KURABO […] […] (angiogenesis quantification software Ver 1.0), and evaluated on the basis of the ratio of the areas of polypeptide-containing groups relative to the area of the negative control group.

For a further assay, the system named is Fusarium solani. The class given is cell-based. Conditions: 37° C. for 20 hours; tested twice, first/second value where not matched. On the procedure:
(§1) Further, with respect to not only the above-described strains but also various other strains, the “minimum inhibitory concentration (MIC)” was measured as follows. MIC is the lowest concentration of an agent that may inhibit the growth of a bacterium. MIC is used as a parameter for the efficacy of an antibacterial agent, for the strength of bacterial sensitivity, or the like. The bacteria can grow (proliferate) when the concentration is not higher than MIC, and cannot grow when the concentration is higher than MIC. Its measurement is carried out according to a method defined as a standard method by Japanese Society of Chemotherapy or CLINICAL AND LABORATORY […] (CLSI), but, in this Example, its measurement was carried out by a broth microdilution method in accordance with “M100-S17/M7-A7” (Performance Standards for Antimicrobial Susceptibility Testing; Seventeenth Informational Supplement, Vol. 27 No. 1) published by CLSI on January, 2007. That is, sensitivity test of agents was carried out using a microtiter plate or test tubes.
(§2) The bacteria were cultured in liquid media for 4 to 6 hours, and thereafter absorbances at A600 were measured. Bacterial suspensions were diluted with Mueller-Hinton broth (MHB) according to McFarland #0.5. Each strain was added so as to attain about 10^5 CFU/ml (final concentration). Each peptide was prepared to an optional concentration, and the solutions were serially diluted from the concentration. The polypeptide at each concentration stage was added to a microplate or test tubes, and the bacterial suspension was added thereto. Chloramphenicol, amphotericin B, ciprofloxacin, meropenem (MEPM), ciprofloxacin (CPFX), tobramycin (TOB) and oxacillin (OX) were used as positive controls. The plate was incubated at 37° C. for 20 hours, and the lowest concentration where bacterial growth was inhibited was regarded as the minimum inhibitory concentration.

In another assay the test system is Trichophyton rubrum. Format: cell-based. Conditions: 37° C. for 20 hours; tested twice, first/second value where not matched. On the procedure: as §1, §2
Assay [2] has as its system Pseudomonas aeruginosa (clinical strain 8). Put plainly: MIC measurement, broth microdilution. Format: cell-based. Conditions: 37° C. for 20 hours; tested twice, first/second value where not matched. Background: In broth dilution the organism is exposed to a series of concentrations in liquid medium.
Assay [3] deals with decubitus model, hairless rats. Put plainly: Healing effect on decubituses. The class given is in vivo, rat. As to conditions: 0.2 μg/uL (4 μg/wound). The method, then: In order to confirm the healing effect on a decubitus, one of skin ulcers, a decubitus model was produced using 7-week old male hairless rats (HWY/slc), and the healing effect of the polypeptides of the present invention was examined. A pair of magnets (φ10×5 mm; available from AZBIO KENIS; rare earth magnets; Type: KD-2; Code: 3-118-119; and, Magnetic Flux Density: 350 mT) was contacted to the skin of the back of each rat for 8 hours to induce a decubitus. On the day after inducing the decubitus, the necrotic skin was surgically removed to obtain a decubitus model. After producing the decubitus model, the test substance was administered onto the wound site, and a covering was used to cover over that (Day 0). Only a covering was used in the Control. Thereafter, on every measurement day, the test substance was administered once a day, and the change of the area of the wound was measured by calculating measured values from a digital caliper and digital images. The concentration of the test substances were individually 0.2 μg/uL (4 μg/wound). The area where the burns had still not healed was measured to calculate the ratio of it relative to the area where the burns were created (Day 0).

Turning to `CC[C@H](C)[C@H](NC(=O)[C@H](CC(C)C)NC(=O)[C@H](CCCCN)NC(=O)[C@@H](N)CC(C)C)C(=O)N[C@@H](Cc1ccccc1)C(=O)N[C@@H](CC(C)C)C(=O)N[C@@H](Cc1c[nH]cn1)C(=O)N[C@@H](CCCNC(=N)N)C(=O)N[C@@H](CC(C)C)C(=O)N[C@@H](CCCCN)C(=O)N[C@@H](CCCNC(=N)N)C(=O)N[C@@H](CCSC)C(=O)N[C@@H](CCCNC(=N)N)C(=O)N[C@@H](CCCCN)C(=O)N[C@@H](CCCNC(=N)N)C(=O)N[C@@H](CC(C)C)C(=O)N[C@H](CCCCN)C(=O)N[C@@H](CCCNC(=N)N)C(=O)N[C@@H](CCCCN)C(N)=O` [SR-08] (H-LKLIFLHRLKRMRKRL[dK]RK-NH2; N-terminus assumed), the “Ability to form lumen (areas of formed lumina relative to negative control, FIG. 1)” value in assay [1] was “showed an ability to form lumen at the tested concentrations”. In the assay with Fusarium solani, the “MIC, Fusarium solani” value is reported as 4/8. Further, the “MIC, Trichophyton rubrum” value in the assay on Trichophyton rubrum is reported as 128/64. In assay [2], the “MIC, Pseudomonas aeruginosa (clinical strain 8)” value was 16/32. In addition, the “Healing effect on decubitus (unhealed area ratio, FIGS. 16 and 17)” value in assay [3] (once a day) is reported as “showed a therapeutic effect also in decubituses”. In addition, the “Ratio of remaining wound area on Day 12, Mean Value” in assay [3] (decubitus model, Day 12, Control Group 4.516729) is recorded as 0.7902.

Source of the values: US9695219B2, “Polypeptide having antibacterial activity and angiogenesis-inducing activity and wound-healing drug containing said polypeptide” (priority 2009, dated 2017).
